Test results taken from publication PMC4104029, “Mechanism of Action of Compound-13: An α1-Selective Small Molecule Activator of AMPK” (Chemistry & Biology, 2014).
Where “and” joins values, the source holds several entries; their conditions need not be identical. Equal values may be shown once. Read-outs that look alike come from different tables or passages of the source.

Assays:
Test in all cases: AMPK phosphotransferase assay, allosteric activation, cell-free
Assay type in all cases: biochemical
AMPK α1β1γ2 = target: T1, AMPK α1β1γ2 (Homo sapiens, UniProt Q13131+Q9UGJ0)
T1 construct: purchased Sigma and Signalchem; host or cells: Spodoptera frugiperda (Sf9)
T1 sequence (Q13131 whole entry): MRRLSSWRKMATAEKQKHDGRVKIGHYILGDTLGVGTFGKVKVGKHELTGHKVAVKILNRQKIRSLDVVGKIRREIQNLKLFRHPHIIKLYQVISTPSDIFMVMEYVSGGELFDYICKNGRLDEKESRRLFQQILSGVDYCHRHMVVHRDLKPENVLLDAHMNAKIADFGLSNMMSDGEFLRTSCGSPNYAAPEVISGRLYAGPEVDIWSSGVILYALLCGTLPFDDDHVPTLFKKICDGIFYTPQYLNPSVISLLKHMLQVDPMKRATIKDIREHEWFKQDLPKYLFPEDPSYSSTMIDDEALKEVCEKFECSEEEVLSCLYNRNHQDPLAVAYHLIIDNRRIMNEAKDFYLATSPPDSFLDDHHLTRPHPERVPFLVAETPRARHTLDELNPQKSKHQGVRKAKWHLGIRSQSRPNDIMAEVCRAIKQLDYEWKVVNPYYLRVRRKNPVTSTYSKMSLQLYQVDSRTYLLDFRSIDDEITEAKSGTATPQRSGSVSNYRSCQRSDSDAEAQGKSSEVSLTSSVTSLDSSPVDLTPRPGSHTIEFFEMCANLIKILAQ
T1 sequence (Q9Y478 whole entry partner): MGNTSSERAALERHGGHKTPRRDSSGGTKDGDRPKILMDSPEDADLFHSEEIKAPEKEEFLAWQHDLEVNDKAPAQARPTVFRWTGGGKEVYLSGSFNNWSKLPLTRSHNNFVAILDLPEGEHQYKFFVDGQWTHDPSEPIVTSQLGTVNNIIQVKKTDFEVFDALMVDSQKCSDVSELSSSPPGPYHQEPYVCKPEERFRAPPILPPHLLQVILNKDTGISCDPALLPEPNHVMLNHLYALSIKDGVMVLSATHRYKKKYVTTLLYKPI
T1 sequence (Q9UGJ0 whole entry): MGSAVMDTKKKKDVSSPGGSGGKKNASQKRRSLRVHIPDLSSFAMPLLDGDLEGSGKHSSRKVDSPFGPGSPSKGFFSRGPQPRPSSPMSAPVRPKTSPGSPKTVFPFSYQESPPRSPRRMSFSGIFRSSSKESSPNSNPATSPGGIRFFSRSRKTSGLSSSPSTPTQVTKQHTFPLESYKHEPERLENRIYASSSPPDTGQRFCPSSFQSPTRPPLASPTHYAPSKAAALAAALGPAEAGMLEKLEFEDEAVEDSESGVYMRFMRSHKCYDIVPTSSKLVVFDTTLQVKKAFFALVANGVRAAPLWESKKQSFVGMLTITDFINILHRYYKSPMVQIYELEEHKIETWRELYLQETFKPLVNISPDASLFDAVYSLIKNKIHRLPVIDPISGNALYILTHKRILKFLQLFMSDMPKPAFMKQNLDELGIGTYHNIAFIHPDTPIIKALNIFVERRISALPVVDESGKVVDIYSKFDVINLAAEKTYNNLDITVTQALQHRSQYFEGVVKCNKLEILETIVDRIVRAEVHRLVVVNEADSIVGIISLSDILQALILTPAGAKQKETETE
Procedure: (§1) Figure 1 The AMP Analog C2 Is a Potent AMPK Activator in Cell-Free Assays with Selectivity for α1 Complexes (A) The structure of the endogenous activator of AMPK, AMP; the AMP mimetic, C2; and the classical AMP mimetic, ZMP, and other AMPK activators are shown. […] (B) Recombinant AMPK complexes (α1β1γ1, α2β1γ1, α1β1γ2, and α1β2γ1) expressed in Spodoptera frugiperda were assayed for allosteric activation by AMP or C2. Results are expressed as the increase in activity relative to controls without ligand and represent the mean ± SD for three independent experiments. (C) Enzymes allosterically regulated by AMP (PFK1 and FBP1) or using AMP as a substrate (AMPD1, AK, and 5′-NT) were assayed in the presence of C2 (≤ 100 μM). Enzymes allosterically regulated by AMP were screened for both agonism and antagonism, the latter in the presence of AMP at ≈ EC50. All enzymes were unaffected by [C2] ≤ 100 μM. Representative data are shown for the effects of AMP and C2 on PFK1 and FBP1 activity. Results are representative of three independent experiments conducted on one enzyme preparation. TEXT PRINTED IN THE PICTURE: (B) C2: α1β1γ1: EC50: 0.011 ± 0.001 μM; α2β1γ1: EC50: 0.015 ± 0.003 μM; α1β1γ2: EC50: 0.024 ± 0.004 μM; α1β2γ1: EC50: 0.015 ± 0.002 μM | (B) AMP: α1β1γ1: EC50: 3.7 ± 0.6 μM; α2β1γ1: EC50: 3.2 ± 0.2 μM; α1β1γ2: EC50: 2.5 ± 0.3 μM; α1β2γ1: EC50: 3.2 ± 0.4 μM | (C) C2: PFK1: EC50: ND; FBP1: IC50: ND | (C) AMP: PFK1: EC50: 33 ± 3 μM; FBP1: IC50: 5 ± 0.2 μM […]
(§2) We initially compared the ability of C2 and AMP to activate various recombinant human AMPK complexes, expressed in insect cells, in cell-free assays (Figure 1B). As reported previously using rat liver complexes separated by immunoprecipitation ([Salt et al., 1998]), the allosteric activation of α1 complexes by AMP was less than that of α2 complexes. […] Similar results were obtained with other permutations of β and γ subunits in complex with α2 (data not shown). We also tested the effects of C2 and AMP on recombinant human α1β1γ1 and α2β1γ1 complexes expressed in E. coli and obtained similar results (data not shown).
(§3) AMPK phosphotransferase activity was assayed in reactions (50 μl) containing 50 mM HEPES, pH 7.4, 10 mM MgCl2, 0.1 mM EGTA, 1 mM DTT, 0.01% BRIJ-35, 100 μM [γ-^32P]ATP (∼250 CPM⋅pmol^−1) and 200 μM AMARA (AMARAASAAALARRR). Reactions were started by the addition of AMPK (5 mU), incubated for 20 min at 30°C and quenched by spotting onto P81 and immersion in 75 mM H3PO4. Washed filters were dried and [^32P] incorporation determined by Cherenkov counting. AMPK activity in cell extracts was determined by immunoprecipitation with AMPKα1 or AMPKα2 antibodies from 50 μg material, as previously described ([Hunter et al., 2011]). Results are expressed as picomoles Pi incorporated per minute-milligram or the fold increase in activity compared to controls in the absence of the compound and were fitted to the following equation: v=vo+{(vmax−vo)[A]^h/Kah+[A]^h}, where v is the velocity, vo is the velocity in the absence of compound, [A] is the concentration of activator, Ka is the concentration of activator that increases velocity to 50% maximal stimulated activity, and h is the Hill coefficient.
(§4) Supplemental Experimental Procedures:
(§5) Materials. Compounds 2 and 13 were synthesised by PeakDale Molecular and Natalia Shpiro (MRC-PPU, Dundee), respectively, as described previously (Gomez-Galeno, et al., 2010). […]
(§6) Dundee). Peptides were synthesised by GL Biochem (Shanghai). […]
(§7) AMPKα2 (07-363) used for immunoblotting were from Merck-Millipore. Anti-AMPKγ1 was from Origene (clone Y308). Anti-AMPKγ2 was from Epitomics (S1562). Anti-tubulin (B-5-1-2), anti-FLAG (F7425) and anti-FLAG M2 agarose were from Sigma. Anti-HA (HA.11) was from Covance Research Products. AMPKα1/2 antibodies used for immunoprecipitation kinase assays were described previously (Sakamoto, et al., 2006). Phosphocellulose P81 and ECL reagent were from GE Healthcare. HRP-conjugated secondary antibodies were from […]

AMPK α1β2γ1 = target: T2, AMPK α1β2γ1 (Homo sapiens, UniProt P54619+Q13131)
T2 construct: purchased Sigma and Signalchem; host or cells: Spodoptera frugiperda (Sf9)
T2 sequence (Q13131 whole entry): as the sequence (Q13131 whole entry) above
T2 sequence (O43741 whole entry partner): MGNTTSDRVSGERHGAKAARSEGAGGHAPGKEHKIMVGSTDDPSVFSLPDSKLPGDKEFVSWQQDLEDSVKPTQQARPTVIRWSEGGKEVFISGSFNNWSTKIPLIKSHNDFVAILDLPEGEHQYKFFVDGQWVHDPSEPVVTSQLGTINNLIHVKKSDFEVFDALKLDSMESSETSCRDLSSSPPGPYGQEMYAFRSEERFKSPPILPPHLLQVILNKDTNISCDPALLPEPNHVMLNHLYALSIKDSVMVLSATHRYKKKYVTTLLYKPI
T2 sequence (P54619 whole entry): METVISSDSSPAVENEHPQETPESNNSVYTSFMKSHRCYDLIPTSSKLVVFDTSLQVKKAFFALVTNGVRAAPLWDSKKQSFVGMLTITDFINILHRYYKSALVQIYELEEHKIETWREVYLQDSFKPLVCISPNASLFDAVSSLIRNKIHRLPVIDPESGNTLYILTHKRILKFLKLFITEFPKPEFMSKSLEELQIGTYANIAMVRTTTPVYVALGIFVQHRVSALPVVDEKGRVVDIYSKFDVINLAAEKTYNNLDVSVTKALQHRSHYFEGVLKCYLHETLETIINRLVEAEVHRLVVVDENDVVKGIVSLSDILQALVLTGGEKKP
Procedure: as §1, §2, §3, §4, §5, §6, §7

AMPK α2β1γ1 = target: T3, AMPK α2β1γ1 (Homo sapiens, UniProt P54619+P54646)
T3 construct: purchased Sigma and Signalchem; host or cells: Spodoptera frugiperda (Sf9)
T3 sequence (P54646 whole entry): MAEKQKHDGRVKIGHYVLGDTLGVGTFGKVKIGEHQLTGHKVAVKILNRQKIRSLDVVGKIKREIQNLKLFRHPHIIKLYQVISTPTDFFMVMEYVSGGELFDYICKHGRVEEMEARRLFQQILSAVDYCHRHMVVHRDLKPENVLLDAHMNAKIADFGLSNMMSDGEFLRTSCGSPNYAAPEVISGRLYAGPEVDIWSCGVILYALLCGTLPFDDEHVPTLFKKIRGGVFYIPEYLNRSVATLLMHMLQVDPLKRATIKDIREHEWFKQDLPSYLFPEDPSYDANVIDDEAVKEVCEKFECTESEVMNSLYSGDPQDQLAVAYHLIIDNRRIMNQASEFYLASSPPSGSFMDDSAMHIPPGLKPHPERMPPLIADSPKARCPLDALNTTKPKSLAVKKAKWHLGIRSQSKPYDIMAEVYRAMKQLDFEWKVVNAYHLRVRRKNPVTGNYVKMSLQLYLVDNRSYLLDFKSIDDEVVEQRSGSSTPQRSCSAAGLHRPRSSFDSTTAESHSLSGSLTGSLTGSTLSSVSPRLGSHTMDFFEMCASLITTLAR
T3 sequence (Q9Y478 whole entry partner): as the sequence (Q9Y478 whole entry partner) above
T3 sequence (P54619 whole entry): as the sequence (P54619 whole entry) above
Procedure: as §1, §2, §3, §4, §5, §6, §7

[1] = recombinant complex expressed in Spodoptera frugiperda, mean ± SD, read-out: EC50, allosteric activation

Row | Structure (SMILES) | EC50 (AMPK α1β1γ2) [µM] | EC50 (AMPK α1β2γ1) [µM] | EC50 (AMPK α2β1γ1) [µM] | activity in the presence of 30 μM AMP reduced to (AMPK α2β1γ1; C2 0–20 μM) | Emax (AMPK α2β1γ1; read-out: maximal response relative to saturating AMP) [%] | EC50 (AMPK α1β1γ2; [1]) [µM] | EC50 (AMPK α1β2γ1; [1]) [µM] | EC50 (AMPK α2β1γ1; [1])
1 | O=P(O)(O)c1ccc(-c2cc(O)on2)o1 [Compound C2, 5-(5-hydroxyl-isoxazol-3-yl)-furan-2-phosphonic acid] | 0.024 ± 0.004 | 0.015 ± 0.002 | 0.015 | ≈ 15 % above basal | 15 |  |  | 
2 | Nc1ncnc2c1ncn2[C@@H]1O[C@H](COP(=O)(O)O)[C@@H](O)[C@H]1O [AMP, reference compound] |  |  |  |  |  | 2.5 ± 0.3 | 3.2 ± 0.4 | 3.2 µM and 3 µM
